Assay results published in patent publication US8822468B2 (Novartis AG, priority 2008, dated 2014).

target: T1, cMET receptor tyrosine kinase (GST-cMET (969-1390)) (Homo sapiens, UniProt P08581); assay: EPK cMET profiling assay (LanthaScreen TR-FRET antibody based kinase phosphorylation assay); type: biochemical; details: purified recombinant GST-cMET (969-1390), 2 μM ATP, 50 nM Fluorescein-PolyEAY, 60 minutes at room temperature; read-out: c-Met IC50
T1 construct: made in house
How it was run: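 GST-cMET cytoplasmic domain (969-1390), 0.3 nM, phosphorylated 50 nM fluorescein-PolyEAY with 2 µM ATP, Mg2+/Mn2+, 0.6% DMSO, 60 min at room temperature. Stopped with EDTA; Tb-PY20 antibody TR-FRET single end-point read. Final compound concentrations 10 to 0.003 µM, 8 points.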

T1 sequence (P08581 969-1390): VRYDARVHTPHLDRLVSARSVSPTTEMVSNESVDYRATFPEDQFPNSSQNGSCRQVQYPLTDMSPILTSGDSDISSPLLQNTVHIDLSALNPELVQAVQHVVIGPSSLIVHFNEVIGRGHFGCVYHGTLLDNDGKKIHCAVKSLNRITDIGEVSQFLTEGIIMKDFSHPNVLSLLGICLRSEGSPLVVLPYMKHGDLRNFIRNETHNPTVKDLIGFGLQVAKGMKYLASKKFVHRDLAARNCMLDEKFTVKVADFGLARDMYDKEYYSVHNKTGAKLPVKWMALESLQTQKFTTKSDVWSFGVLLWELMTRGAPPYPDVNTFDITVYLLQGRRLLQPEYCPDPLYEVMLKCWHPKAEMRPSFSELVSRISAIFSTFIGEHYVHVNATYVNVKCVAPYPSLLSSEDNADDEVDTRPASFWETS

`CNC(=O)c1ccc(-c2ccc3ncc(Cc4ccc5ncccc5c4)n3n2)cc1F` [Example 70, 2-Fluoro-N-methyl-4-(3-quinolin-6-ylmethyl-imidazo[1,2-b]pyridazin-6-yl)-benzamide] and `COc1ccc(-c2ccc3ncc(Cc4ccc5ncccc5c4)n3n2)cc1` [Example 35, 6-[6-(4-Methoxy-phenyl)-imidazo[1,2-b]pyridazin-3-ylmethyl]-quinoline] are within 1.5-fold of each other in IC50: 62 nM for the first, 79 nM for the second.

Compared with `C[C@@H](c1cc2cccnc2cc1F)c1cnc2ccc(-c3cnn(CCO)c3)nn12` [Example 257], `CCn1cc(-c2ccc3ncc(Cc4cc5cccnc5cc4F)n3n2)cn1` [Example 250, 6-[6-(1-Ethyl-1H-pyrazol-4-yl)-imidazo[1,2-b]pyridazin-3-ylmethyl]-7-fluoro-quinoline] is higher in IC50: under 3 nM for the first, 15 nM for the second. The first is the more potent here.

`Cn1cc(-c2ccc3ncc([C@](C)(O)c4cc5cccnc5cc4F)n3n2)cn1` [Example 175, (R)-1-(7-Fluoro-quinolin-6-yl)-1-[6-(1-methyl-1H-pyrazol-4-yl)-imidazo[1,2-b]pyridazin-3-yl]-ethanol] and `CC(=O)N1CCC(n2cc(-c3ccc4ncc(Cc5cc6cccnc6cc5F)n4n3)cn2)CC1` [Example 230, 1-(4-{4-[3-(7-Fluoro-quinolin-6-ylmethyl)-imidazo[1,2-b]pyridazin-6-yl]-pyrazol-1-yl}-piperidin-1-yl)-ethanone] are within 1.5-fold of each other in IC50: 38 nM for the first, 27 nM for the second.

Compared with `c1cnc2ccc(Cc3cnc4ccc(NCC5CCCO5)nn34)cc2c1` (stereo not drawn) [Example 80, (3-Quinolin-6-ylmethyl-imidazo[1,2-b]pyridazin-6-yl)-(tetrahydro-furan-2-ylmethyl)-amine], `O=C(NCCN1CCCC1)c1ccc(-c2ccc3ncc(Cc4ccc5ncccc5c4)n3n2)cc1Cl` [Example 144, 2-Chloro-N-(2-pyrrolidin-1-yl-ethyl)-4-(3-quinolin-6-ylmethyl-imidazo[1,2-b]pyridazin-6-yl)benzamide] is 12-fold lower in IC50: 38 nM for the first, 3.2 nM for the second.

Compared with `CC(c1ccc2ncn(C)c2c1)c1cnc2ccc(-c3cnn(CCO)c3)nn12` (racemic) [Example 185, (rac)-2-(4-{3-[1-(3-Methyl-3H-benzoimidazol-5-yl)-ethyl]-imidazo[1,2-b]pyridazin-6-yl}-pyrazol-1-yl)-ethanol], `CC(c1ccc2ncn(C)c2c1)c1cnc2ccc(-c3cnn(C)c3)nn12` (racemic) [Example 206, (rac)-3-[1-(3-Methyl-3H-benzoimidazol-5-yl)-ethyl]-6-(1-methyl-1H-pyrazol-4-yl)-imidazo[1,2-b]pyridazine] is 1.8-fold lower in IC50: 56 nM for the first, 31 nM for the second. The second is the more potent here.

Compared with `Cn1cc(-c2ccc3ncc(Cc4ccc5[nH]cnc5c4)n3n2)cn1` [Example 162, 3-(1H-Benzoimidazol-5-ylmethyl)-6-(1-methyl-1H-pyrazol-4-yl)-imidazo[1,2-b]pyridazine], `Cn1cc(-c2ccc3ncc(Cc4ccc5ncc(Br)n5c4)n3n2)cn1` [Example 296, 3-(3-Bromo-imidazo[1,2-a]pyridin-6-ylmethyl)-6-(1-methyl-1H-pyrazol-4-yl)-imidazo[1,2-b]pyridazine] is 1.7-fold higher in IC50: 34 nM for the first, 57 nM for the second.

Going from `CN1CCC(n2cc(-c3ccc4ncc(Cc5c(F)cc6ncccc6c5F)n4n3)cn2)CC1` [Example 246, 5,7-Difluoro-6-{6-[1-(1-methyl-piperidin-4-yl)-1H-pyrazol-4-yl]-imidazo[1,2-b]pyridazin-3-ylmethyl}-quinoline] to `Fc1cc2ncccc2cc1Cc1cnc2ccc(-c3cnn(C4CCN(CC(F)(F)F)CC4)c3)nn12` [Example 149, 7-Fluoro-6-(6-{1-[1-(2,2,2-trifluoro-ethyl)-piperidin-4-yl]-1H-pyrazol-4-yl}-imidazo[1,2-b]pyridazin-3-ylmethyl)-quinoline], the IC50 rises from under 3 nM to 31 nM. The first is the more potent here.

For `Cn1ncc2cc(Cc3cnc4ccc(-c5cnn(C6CCNCC6)c5)nn34)c(F)cc21` [Example 282, 3-(6-Fluoro-1-methyl-1H-indazol-5-ylmethyl)-6-(1-piperidin-4-yl-1H-pyrazol-4-yl)-imidazo[1,2-b]pyridazine], the IC50 was 87 nM.
